Paper PMC8576818, “The ethoxycarbonyl group as both activating and protective group in N-acyl-Pictet–Spengler reactions using methoxystyrenes. A short approach to racemic 1-benzyltetrahydroisoquinoline alkaloids” (Beilstein Journal of Organic Chemistry, 2021)

Columns and labels:
[1] = target: T1, two-pore channel 2 (TPC2) (Homo sapiens, UniProt Q8NHX9, L11A/L12A); test: fluo-4 Ca2+ FLIPR assay in HEK293 cells stably expressing hTPC2, stimulated with TPC2-A1-P or TPC2-A1-N; format: cell-based
T1 construct: gene TPCN2; human TPC2, C-terminally RFP-tagged, rerouted to the plasma membrane (hTPC2L11A/L12A)

[2] = target: T2, P-glycoprotein (P-gp) (Homo sapiens, UniProt P08183); test: calcein-AM retention by flow cytometry in VCR-R CEM cells at […]; format: cell-based
T2 construct: gene ABCB1; P-glycoprotein overexpressing VCR-R CEM cells
T2 sequence (P08183 whole entry): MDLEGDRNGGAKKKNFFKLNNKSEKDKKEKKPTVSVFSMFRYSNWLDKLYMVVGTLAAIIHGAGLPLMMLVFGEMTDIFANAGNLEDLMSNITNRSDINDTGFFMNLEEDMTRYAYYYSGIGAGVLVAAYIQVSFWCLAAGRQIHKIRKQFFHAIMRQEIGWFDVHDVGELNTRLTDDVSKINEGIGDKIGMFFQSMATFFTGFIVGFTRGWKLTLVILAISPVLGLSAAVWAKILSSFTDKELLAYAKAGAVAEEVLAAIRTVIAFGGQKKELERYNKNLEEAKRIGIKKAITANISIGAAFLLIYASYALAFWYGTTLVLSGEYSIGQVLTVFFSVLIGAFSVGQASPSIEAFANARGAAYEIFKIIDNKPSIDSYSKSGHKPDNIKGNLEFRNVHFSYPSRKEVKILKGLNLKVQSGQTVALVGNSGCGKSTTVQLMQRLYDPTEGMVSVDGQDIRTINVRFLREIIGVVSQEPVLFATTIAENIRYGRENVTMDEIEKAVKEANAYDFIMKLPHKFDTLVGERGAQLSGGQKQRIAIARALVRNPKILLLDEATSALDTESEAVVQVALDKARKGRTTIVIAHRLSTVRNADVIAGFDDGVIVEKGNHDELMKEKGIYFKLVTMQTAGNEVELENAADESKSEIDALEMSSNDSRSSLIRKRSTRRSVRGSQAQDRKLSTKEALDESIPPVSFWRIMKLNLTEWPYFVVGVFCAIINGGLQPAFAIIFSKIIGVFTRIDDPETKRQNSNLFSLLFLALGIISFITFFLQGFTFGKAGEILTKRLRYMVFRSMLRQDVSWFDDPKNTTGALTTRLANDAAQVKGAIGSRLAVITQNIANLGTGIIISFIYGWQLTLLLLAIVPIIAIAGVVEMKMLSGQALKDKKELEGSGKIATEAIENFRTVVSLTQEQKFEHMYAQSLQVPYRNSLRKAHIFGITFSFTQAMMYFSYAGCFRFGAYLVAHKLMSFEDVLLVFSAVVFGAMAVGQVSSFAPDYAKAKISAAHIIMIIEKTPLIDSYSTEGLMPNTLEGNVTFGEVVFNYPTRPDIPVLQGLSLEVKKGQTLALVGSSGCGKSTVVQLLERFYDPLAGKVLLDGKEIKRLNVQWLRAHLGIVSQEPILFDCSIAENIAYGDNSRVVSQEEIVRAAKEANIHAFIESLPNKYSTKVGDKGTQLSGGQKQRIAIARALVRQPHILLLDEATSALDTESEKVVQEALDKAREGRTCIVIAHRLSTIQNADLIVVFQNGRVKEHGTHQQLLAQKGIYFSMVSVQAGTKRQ

T1 sequence (Q8NHX9 whole entry L11A/L12A): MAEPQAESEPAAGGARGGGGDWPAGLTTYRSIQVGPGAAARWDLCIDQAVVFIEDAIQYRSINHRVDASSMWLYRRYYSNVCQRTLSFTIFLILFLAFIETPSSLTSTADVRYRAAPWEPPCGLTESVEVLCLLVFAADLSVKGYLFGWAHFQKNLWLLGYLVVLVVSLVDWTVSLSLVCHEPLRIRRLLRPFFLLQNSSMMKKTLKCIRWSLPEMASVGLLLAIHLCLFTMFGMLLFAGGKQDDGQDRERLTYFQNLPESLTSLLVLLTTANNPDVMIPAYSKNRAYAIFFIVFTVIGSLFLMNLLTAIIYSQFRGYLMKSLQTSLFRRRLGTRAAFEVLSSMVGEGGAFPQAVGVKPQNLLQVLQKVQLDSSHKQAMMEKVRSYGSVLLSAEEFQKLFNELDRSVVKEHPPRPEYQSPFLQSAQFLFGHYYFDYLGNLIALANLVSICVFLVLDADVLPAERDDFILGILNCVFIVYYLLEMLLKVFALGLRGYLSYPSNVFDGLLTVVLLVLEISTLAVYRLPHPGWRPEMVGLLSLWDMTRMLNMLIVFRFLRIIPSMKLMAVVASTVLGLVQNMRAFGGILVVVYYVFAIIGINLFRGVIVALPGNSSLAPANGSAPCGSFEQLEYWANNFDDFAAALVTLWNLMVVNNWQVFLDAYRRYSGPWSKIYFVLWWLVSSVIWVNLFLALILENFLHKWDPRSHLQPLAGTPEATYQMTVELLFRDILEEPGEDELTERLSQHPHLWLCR

Row | IC50 [1] | SMILES | calcein-AM retention by flow cytometry in VCR-R CEM cells at 10 μM [2]
1 | 3.6/57 µM | COc1ccc2cc1Oc1ccc(cc1)C[C@H]1c3c(cc4c(c3Oc3cc5c(cc3OC)CCN(C)[C@@H]5C2)OCO4)CCN1C [cepharanthine] | 
2 | 31/21 µM | COc1ccc2cc1Oc1ccc(cc1)C[C@H]1c3cc(c(OC)cc3CCN1C)Oc1c(OC)c(OC)cc3c1[C@H](C2)N(C)CC3 [tetrandrine] | indicating no P-glycoprotein inhibition. Tetrandrine served as positive control (Figure 5C).
